Experimental data from paper PMC8979514 (Journal of Enzyme Inhibition and Medicinal Chemistry, 2022).
Read-outs that look alike come from different tables or passages of the source.

Legend:
[1] = in vitro; type: cell-based, human; conditions: human; MTT, 24 h incubation; read-out: Cytotoxicity on HepG2 cells IC50
Experimental: (§1) Human neuroblastoma SH-SY5Y and human liver hepatocellular HepG2 cell lines were purchased from the American Type Culture Collections (ATCC). SH-SY5Y cells were cultured in a Dulbecco’s Modified Eagle Medium (DMEM) supplemented with Ham F12 medium (ratio 1:1), whereas HepG2 cells in Eagle’s Minimum Essential Medium (EMEM). Additionally, all culture medium was supplemented with 10% foetal bovine serum (FBS), streptomycin (100 µg/mL) and penicillin (100 U/mL). The cells were seeded into flasks containing supplemented medium and maintained in a humidified atmosphere of 5% CO2 and 95% air at 37 °C. The cell viability assay was performed in confluence of the cells in serum free medium (without FBS) was 80–90%.
(§2) […]. SH-SY5Y cells and HepG2 cells were seeded on 96-well plate with a density of 27–29 × 10^3 cells/well and 12–14 × 10^3/well respectively. […]. The DMSO concentration of every well in final dilutions was equal to or less than 0.1%. After incubation with compounds, MTT was added and 2 h later, the absorbance was measured at 492 nm. The result was expressed as the percentage of control cells (cultured in serum-free medium containing 0.1% of DMSO) which was set to 100%. The MTT test was performed in three independent replications. Data analysis was performed by using GraphPad Prism 5.0 Software.
. HepG2 is a commonly used in vitro model for the investigation of hepatocytotoxic effect of xenobiotics [40]^,[41]. In our study, we evaluated the toxicity of our new analogs against […]. […]

[2] = target: T1, Acetylcholinesterase (eeAChE, E.C. 3.1.1.7) (Electrophorus electricus, UniProt O42275); test: biochemical; type: biochemical, electric eel; conditions: for IC50: eeAChE; for Selectivity IC50(eeAChE)/ IC50(BChE): ratio of IC50 values
T1 construct: purchased Sigma Aldrich
Experimental: (§3) [33] Inhibitory activity was tested at room temperature on 96-well plate using Ellman’s method. Lyophilised powders of AChE and BChE were dissolved in phosphate buffer (pH 7.5, 0.1 M) with 1% BSA.
(§4) Each well was filled to a total volume of 330 µL. The content inculded 285 µL of phosphate buffer, 5 µL 2 units/mL of eeAChE/BChE, 10 µL 0.01 M of DTNB, 10 µl of tested compound (for the control wells 10 µL of the phosphate buffer instead of tested compound) and 20 µL (7.5 mM) ATCh/BTCh. The hydrolysis of ATCh/BTCh was initiated by adding it to the well directly before the measurement. The absorbance was recorded at 1 min intervals for 8 min in total. The percent of inhibition was calculated by nonlinear regression analysis of the response–concentration (log) curve as a percentage of the reaction rate of the tested compounds over the control. Data analysis was performed by using GraphPad Prism 5.0 Software to give the IC50 values. The experiment was carried out in triplicate.

[3] = target: T2, butyrylcholinesterase (BChE, E.C. 3.1.1.8) (Equus caballus, UniProt P81908); test: biochemical; design: species or system equine serum; conditions: for IC50: BChE from equine serum
T2 construct: purchased Sigma Aldrich
Experimental: as §3, §4

[4] = in vitro; type: cell-based, human; conditions: human, 24 h incubation, MTT, mean ± SD, read-out: Cells viability of SH-SY5Y cell line (% of control)
Experimental: as §1, §2
SH-SY5Y a standard cell line used for determining neurocytotoxic effect of potential drug. Moreover it is well-established in vitro model of neurodegenerative disorders. […].

[5] = IC50 AChE, Ellman's method, phosphate buffer pH 7.5, room temperature
[6] = pIC50 ± S.E.M. AChE, value in brackets under the IC50
[7] = IC50 BChE, Ellman's method, phosphate buffer pH 7.5, room temperature
[8] = pIC50 ± S.E.M. BChE, value in brackets under the IC50
[9] = Ellman's method, phosphate buffer pH 7.5, room temperature, read-out: IC50 AChE
[10] = value in brackets under the IC50, read-out: pIC50 ± S.E.M. AChE (converted)
[11] = Ellman's method, phosphate buffer pH 7.5, room temperature, read-out: IC50 BChE
[12] = value in brackets under the IC50, read-out: pIC50 ± S.E.M. BChE (converted)
[13] = from IC50 values, versus tacrine

T2 sequence (P81908 whole entry): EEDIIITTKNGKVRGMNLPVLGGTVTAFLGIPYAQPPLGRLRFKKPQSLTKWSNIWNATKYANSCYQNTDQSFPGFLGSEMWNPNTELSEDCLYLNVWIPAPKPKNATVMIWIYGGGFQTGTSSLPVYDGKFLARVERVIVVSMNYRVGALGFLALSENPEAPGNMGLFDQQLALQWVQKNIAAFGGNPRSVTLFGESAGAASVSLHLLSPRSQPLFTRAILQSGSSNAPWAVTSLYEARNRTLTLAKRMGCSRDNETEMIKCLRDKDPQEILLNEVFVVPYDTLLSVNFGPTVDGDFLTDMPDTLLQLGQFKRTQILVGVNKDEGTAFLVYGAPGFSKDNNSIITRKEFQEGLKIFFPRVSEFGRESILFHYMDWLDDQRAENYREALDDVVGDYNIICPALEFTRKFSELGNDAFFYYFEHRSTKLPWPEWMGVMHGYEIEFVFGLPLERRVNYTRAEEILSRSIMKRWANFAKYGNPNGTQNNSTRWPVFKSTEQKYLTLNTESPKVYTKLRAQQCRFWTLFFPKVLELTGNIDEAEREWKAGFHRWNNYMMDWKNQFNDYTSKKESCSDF
T1 sequence (O42275 24-633): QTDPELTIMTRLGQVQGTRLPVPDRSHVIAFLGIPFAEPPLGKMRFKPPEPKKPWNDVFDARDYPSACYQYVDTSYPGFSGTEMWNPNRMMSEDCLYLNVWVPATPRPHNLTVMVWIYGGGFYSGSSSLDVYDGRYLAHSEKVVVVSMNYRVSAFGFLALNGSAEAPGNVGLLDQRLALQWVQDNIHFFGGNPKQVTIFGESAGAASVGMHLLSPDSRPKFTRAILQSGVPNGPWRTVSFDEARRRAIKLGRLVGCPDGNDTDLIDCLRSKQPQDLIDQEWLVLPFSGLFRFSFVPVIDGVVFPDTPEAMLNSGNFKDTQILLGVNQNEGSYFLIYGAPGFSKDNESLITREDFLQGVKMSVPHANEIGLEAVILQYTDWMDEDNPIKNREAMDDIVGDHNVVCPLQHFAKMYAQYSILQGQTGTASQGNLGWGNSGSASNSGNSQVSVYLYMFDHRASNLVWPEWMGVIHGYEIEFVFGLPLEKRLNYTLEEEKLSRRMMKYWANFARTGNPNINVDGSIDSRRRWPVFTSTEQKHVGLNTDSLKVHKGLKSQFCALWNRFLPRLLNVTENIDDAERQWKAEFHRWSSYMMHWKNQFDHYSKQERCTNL

| Structure (SMILES) | IC50 at 24 h [1] | IC50 [2, 5] | IC50 [2, 6] | Selectivity IC50(eeAChE)/ IC50(BChE) [2] | IC50 [3, 7] | IC50 [3, 8] | viability at 24 h, 12.5 µM [4] | viability at 24 h, 50 µM [4] | viability at 24 h, 100 µM [4] | IC50 [1] | IC50 [2, 9] | IC50 [2, 10] | IC50 [3, 11] | IC50 [3, 12] | viability at 12.5 µM [4] | viability at 50 µM [4] | viability at 100 µM [4] | fold more potent than tacrine against AChE [2, 13] | fold more potent than tacrine against BChE [3, 13] |
| --- | --- | --- | --- | --- | --- | --- | --- | --- | --- | --- | --- | --- | --- | --- | --- | --- | --- | --- | --- |
| CCOP(=O)(NCCCCCCNc1c2c(nc3ccccc13)CCCC2)OCC [Compound 6, Diethyl(6-((1,2,3,4-tetrahydroacridin-9-yl)amino)hexyl)phosphoramidate] | 140 µM | 32.6 nM | 32.6 nM | 4.82 | 6.75 nM | 6.76 nM | 74.3 ± 4.9% | 71.7 ± 7.2% | 67.5 ± 9% | – | – | – | – | – | – | – | – | – | – |
| O=P(NCCCCCCNc1c2c(nc3ccccc13)CCCC2)(Oc1ccccc1)Oc1ccccc1 [Compound 7, Diphenyl(6-((1,2,3,4-tetrahydroacridin-9-yl)amino)hexyl)phosphoramidate] | – | – | – | 3.04 | – | – | – | – | – | 14.6 µM | 125 nM | 125 nM | 41.1 nM | 41.1 nM | 47.4 ± 1.2% | 41.3 ± 1.5% | 30.1 ± 5% | – | – |
| CCOP(=O)(NCCCCCCCCNc1c2c(nc3ccccc13)CCCC2)OCC [Compound 8, Diethyl(8-((1,2,3,4-tetrahydroacridin-9-yl)amino)octyl)phosphoramidate] | 23.7 µM | 6.11 nM | 6.11 nM | 0.48 | 12.9 nM | 12.9 nM | 76.7 ± 5.8% | 51.6 ± 5.4% | 52.2 ± 1% | – | – | – | – | – | – | – | – | 6 fold | – |
| CCCCOP(=O)(NCCCCCCCCNc1c2c(nc3ccccc13)CCCC2)OCCCC [Compound 9, Dibutyl(8-((1,2,3,4-tetrahydroacridin-9-yl)amino)octyl)phosphoramidate] | 43.3 µM | 8.18 nM | 8.18 nM | 0.2 | 41.5 nM | 41.5 nM | 77.5 ± 13.5% | 55.7 ± 11.5% | 54.6 ± 8.4% | – | – | – | – | – | – | – | – | – | – |
| O=P(NCCCCCCCCNc1c2c(nc3ccccc13)CCCC2)(Oc1ccccc1)Oc1ccccc1 [Compound 10, Diphenyl(8-((1,2,3,4-tetrahydroacridin-9-yl)amino)octyl)phosphoramidate] | – | – | – | 0.24 | – | – | – | – | – | 7.15 µM | 44.2 nM | 44.3 nM | 188 nM | 188 nM | 80.1 ± 16.8% | 63.7 ± 5.7% | 48.1 ± 8.1% | – | – |
| CCOP(=O)(NCCCCCCCCCCCCNc1c2c(nc3ccccc13)CCCC2)OCC [Compound 11, Diethyl(12-((1,2,3,4-tetrahydroacridin-9-yl)amino)dodecyl)phosphoramidate] | – | – | – | 0.51 | – | – | – | – | – | 0.05 µM | 33.3 nM | 33.3 nM | 65.5 nM | 65.5 nM | 35.4 ± 4.6% | 35.5 ± 4.1% | 31.1 ± 6.4% | – | – |
| CCCCOP(=O)(NCCCCCCCCCCCCNc1c2c(nc3ccccc13)CCCC2)OCCCC [Compound 12, Dibutyl(12-((1,2,3,4-tetrahydroacridin-9-yl)amino)dodecyl)phosphoramidate] | 20.8 µM | 16.3 nM | 16.3 nM | 0.27 | 61.2 nM | 61.2 nM | 69.3 ± 3.7% | 52.1 ± 3.1% | 53.5 ± 5.8% | – | – | – | – | – | – | – | – | – | – |
| O=P(NCCCCCCCCCCCCNc1c2c(nc3ccccc13)CCCC2)(Oc1ccccc1)Oc1ccccc1 [Compound 13, Diphenyl(12-((1,2,3,4-tetrahydroacridin-9-yl)amino)dodecyl)phosphoramidate] | – | 9.96 nM | 9.95 nM | 5.06 | 1.97 nM | 1.97 nM | 40.4 ± 7.6% | 38.4 ± 7.6% | 38 ± 3.8% | – | – | – | – | – | – | – | – | – | 12 fold |
| CCCCOP(=O)(OCCCC)OCCCNc1c2c(nc3ccccc13)CCCC2 [Compound 17, Dibutyl(3-((1,2,3,4-tetrahydroacridin-9-yl)amino)propyl)phosphate] | 72.3 µM | 110 nM | 110 nM | 3.78 | 29.1 nM | 29.1 nM | 94.4 ± 5.1% | 67.7 ± 14.7% | 63.2 ± 12.2% | – | – | – | – | – | – | – | – | – | – |
| O=P(OCCCNc1c2c(nc3ccccc13)CCCC2)(Oc1ccccc1)Oc1ccccc1 [Compound 18, Diphenyl(3-((1,2,3,4-tetrahydroacridin-9-yl)amino)propyl)phosphate] | 53.8 µM | 58.6 nM | 58.6 nM | 1.55 | 37.7 nM | – | 79.5 ± 7.4% | 71.2 ± 20.5% | 59 ± 20.3% | – | – | – | – | – | – | – | – | – | – |
| CCCCOP(=O)(OCCCC)OCCNCCNc1c2c(nc3ccccc13)CCCC2 [Compound 20, Dibutyl(2-((2-((1,2,3,4-tetrahydroacridin-9-yl)amino)ethyl)amino)ethyl)phosphate] | 134 µM | 81.6 nM | 81.5 nM | 0.44 | 186 nM | – | 78.9 ± 8.6% | 79.7 ± 1.1% | 68.6 ± 14.5% | – | – | – | – | – | – | – | – | – | – |
| O=P(OCCNCCNc1c2c(nc3ccccc13)CCCC2)(Oc1ccccc1)Oc1ccccc1 [Compound 21, Diphenyl(2-((2-((1,2,3,4-tetrahydroacridin-9-yl)amino)ethyl)amino)ethyl)phosphate] | – | 501 nM | 501 nM | 12.22 | 41 nM | 41 nM | 52.3 ± 5% | 42.7 ± 6.4% | 30.7 ± 1.5% | – | – | – | – | – | – | – | – | – | – |
